According to article PMC5986712, “Aminobenzothiazole derivatives stabilize the thermolabile p53 cancer mutant Y220C and show anticancer activity in p53-Y220C cell lines” (European Journal of Medicinal Chemistry, 2018):

What was measured:
NUGC3 cells (p53-Y220C) = experiment: Cell viability assay (CellTiter-Fluor / CellTiter-Glo 2.0), NUGC3; type: cell-based, human; settings: Homo sapiens, NUGC-3; 72 h, Y220C cell line
Protocol: (§1) We also envisaged that masking the carboxylate of MB710 as a simple ethylamide MB725 might influence cell permeability and uptake of the scaffold.
(§2) All cell lines were cultured as previously described. Cell viability was measured in quadruplicate (technical replicates) using the CellTiter-Fluor or CellTiter-Glo 2.0 cell viability assay kits (Promega, USA) as previously described.

[1] = tested on: NUGC4 cells (wild-type p53); experiment: Cell viability assay, NUGC4; type: cell-based; settings: Homo sapiens, NUGC-4; 72 h, p53 WT
Protocol: as §1, §2

[2] = tested on: WI38 cells (non-cancerous fibroblast, p53 WT); experiment: Cell viability assay, WI38; settings: Homo sapiens, WI-38, 72 h, read-out: IC50 WI38
Protocol: (§3) All cell lines were cultured as previously described [9]. Cell viability was measured in quadruplicate (technical replicates) using the CellTiter-Fluor or CellTiter-Glo 2.0 cell viability assay kits (Promega, USA) as previously described [9].

BXPC-3 cells (p53-Y220C) = experiment: Cell viability assay, BXPC3; settings: Homo sapiens, BXPC-3, 72 h, read-out: IC50 BXPC3
Protocol: as §3

[3] = Solubility (qualitative observation); type: physicochemical
[4] = target: T1, stabilized p53-Y220C DBD (residues 94–312) (Homo sapiens, UniProt P04637, M133L/N239Y/N268D/V203A/Y220C); experiment: Differential scanning fluorimetry (DSF), thermal stabilization of Y220C; type: binding; settings: 8 μM protein, 10 × SYPRO Orange, 250 μM ligand
T1 construct: Stabilized p53-Y220C DBD (residues 94–312) was expressed and purified; 6xHis / lipoyl domain / TEV protease cleavage site (N, cleaved yes); made in house; host or cells: E. coli C41
Protocol: DSF was performed as described. […] All samples were measured in triplicate.

p53 cancer mutant Y220C = experiment: Binding affinity to the Y220C pocket, values taken from earlier papers (ITC/NMR); settings: Kd ratio
[5] = target: T1, stabilized p53-Y220C DBD (residues 94–312); experiment: Isothermal titration calorimetry (ITC); type: binding; settings: for Kd: ITC
Protocol: Isothermal Titration Calorimetry (ITC). ITC experiments were conducted as described. The cell unit contained 50 μM protein in a 25 mM KPi (pH 7.2), 150 mM NaCl, 1 mM TCEP, and 5% (v/v) DMSO assay buffer. The syringe contained 2–5 mM compound in the same buffer.

## Cn1cc(-c2ccccc2)c(-n2cccc2)n1 [Compound 2]
NUGC3 cells (p53-Y220C)
  IC50: 43 µM
[1]
  IC50: > 120 µM
[2]
  IC50: ~120 µM
BXPC-3 cells (p53-Y220C)
  IC50: 57 µM

## CCN(CC)C1CCN(Cc2cc(C#CCNc3ccccc3)cc(I)c2O)CC1 [Compound 3]
NUGC3 cells (p53-Y220C)
  IC50: 6 µM
[1]
  IC50: 9 µM
[2]
  IC50: 7 µM
BXPC-3 cells (p53-Y220C)
  IC50: 11 µM

## O=C(O)c1cc(I)cc(I)c1O [Compound 4, 2-hydroxy-3,5-diiodobenzoic acid, reference compound]
[3]
  solubility (in words): water soluble

## COC(=O)c1cc(I)c(-n2cccc2)c(I)c1O [Compound 8, Methyl 2-hydroxy-3,5-diiodo-4-(1H-pyrrol-1-yl)benzoate]
[4]
  ΔTm at 250 µM: -0.1 °C

## O=C(O)c1cc(I)c(-n2cccc2)c(I)c1O [Compound 9, 2-hydroxy-3,5-diiodo-4-(1H-pyrrol-1-yl)benzoic acid]
p53 cancer mutant Y220C
  fold more potent than parent fragment 4: 40 fold

## CN(C)CCNC(=O)c1cc(I)c(-n2cccc2)c(I)c1O [Compound 10, N-(2-(dimethylamino)ethyl)-2-hydroxy-3,5-diiodo-4-(1H-pyrrol-1-yl)benzamide]
[4]
  ΔTm at 250 µM: 1.3 °C
[3]
  solubility (in words): substantially less soluble than carboxylic acid 9

## CN1CCN(C(=O)c2cc(I)c(-n3cccc3)c(I)c2O)CC1 [Compound 11, (2-hydroxy-3,5-diiodo-4-(1H-pyrrol-1-yl)phenyl)(4-methylpiperazin-1-yl)methanone]
[4]
  ΔTm at 250 µM: 1.2 °C
[5]
  Kd: 30 µM

## CNC(=O)c1cc(I)c(-n2cccc2)c(I)c1O [Compound 12, 2-hydroxy-3,5-diiodo-N-methyl-4-(1H-pyrrol-1-yl)benzamide]
[4]
  ΔTm at 250 µM: 0.9 °C
[5]
  Kd: 70 µM
[3]
  solubility (in words): substantially less soluble than carboxylic acid 9

## O=C(NO)c1cc(I)c(-n2cccc2)c(I)c1O [Compound 15, N,2-dihydroxy-3,5-diiodo-4-(1H-pyrrol-1-yl)benzamide]
[4]
  ΔTm at 250 µM: 0.8 °C
[5]
  Kd: 139 µM

## CN(C)Cc1cc(I)c(-n2cccc2)c(I)c1O [Compound 17, 6-((dimethylamino)methyl)-2,4-diiodo-3-(1H-pyrrol-1-yl)phenol]
[4]
  ΔTm at 250 µM: 0.9 °C
[5]
  Kd: 60 µM

## O=c1[nH][nH]c2c(I)c(-n3cccc3)c(I)cc12 [Compound 21, 5,7-diiodo-6-(1H-pyrrol-1-yl)-1,2-dihydro-3H-indazol-3-one]
[4]
  ΔTm at 250 µM: 1.5 °C
[5]
  Kd: 50 µM

## O=C(O)c1cc(-c2ccccc2)c(-n2cccc2)c(I)c1O [Compound 33, 4-hydroxy-5-iodo-6-(1H-pyrrol-1-yl)-[1,1'-biphenyl]-3-carboxylic acid]
[4]
  ΔTm at 250 µM: 1 °C
[5]
  Kd: 306 µM

## O=C(O)c1cc(-c2ccc(F)cc2)c(-n2cccc2)c(I)c1O [Compound 34, 4'-fluoro-4-hydroxy-5-iodo-6-(1H-pyrrol-1-yl)-[1,1'-biphenyl]-3-carboxylic acid]
[4]
  ΔTm at 250 µM: 0.8 °C
[5]
  Kd: 113 µM

## COc1ccc(-c2cc(C(=O)O)c(O)c(I)c2-n2cccc2)cc1 [Compound 35, 4-hydroxy-5-iodo-4'-methoxy-6-(1H-pyrrol-1-yl)-[1,1'-biphenyl]-3-carboxylic acid]
[4]
  ΔTm at 250 µM: 1 °C
[5]
  Kd: 122 µM

## CCOc1cc(C(=O)O)c(O)c(I)c1-n1cccc1 [Compound 49, 5-ethoxy-2-hydroxy-3-iodo-4-(1H-pyrrol-1-yl)benzoic acid]
[4]
  ΔTm at 250 µM: 1.3 °C
[5]
  Kd: 63 µM
[5]; Kd ratio versus parent iodine (21 μM)
  times less potent than the parent iodine: 3

## C=CCOc1cc(C(=O)O)c(O)c(I)c1-n1cccc1 [Compound 51, 5-(allyloxy)-2-hydroxy-3-iodo-4-(1H-pyrrol-1-yl)benzoic acid]
[4]
  ΔTm at 250 µM: 1.8 °C
[5]
  Kd: 33 µM

## O=C(O)c1cc(OCCC(F)(F)F)c(-n2cccc2)c(I)c1O [Compound 53, 2-hydroxy-3-iodo-4-(1H-pyrrol-1-yl)-5-(3,3,3-trifluoropropoxy)benzoic acid]
[4]
  ΔTm at 250 µM: 1.4 °C
[5]
  Kd: 108 µM

## O=C(O)c1cc(OCCO)c(-n2cccc2)c(I)c1O [Compound 54, 2-hydroxy-5-(2-hydroxyethoxy)-3-iodo-4-(1H-pyrrol-1-yl)benzoic acid]
[4]
  ΔTm at 250 µM: 0.6 °C
[5]
  Kd: 726 µM

## O=C(O)c1cc(OCCc2ccccc2)c(-n2cccc2)c(I)c1O [Compound 55, 2-hydroxy-3-iodo-5-phenethoxy-4-(1H-pyrrol-1-yl)benzoic acid]
[4]
  ΔTm at 250 µM: 1 °C
[5]
  Kd: 116 µM

## CC(C)COc1cc(C(=O)O)c(O)c(I)c1-n1cccc1 [Compound 56, 2-hydroxy-3-iodo-5-isobutoxy-4-(1H-pyrrol-1-yl)benzoic acid]
[4]
  ΔTm at 250 µM: 1.4 °C
[5]
  Kd: 30 µM

## CCN(CC)c1nc2c(C(=O)OC)c(O)c(I)c(-n3cccc3)c2s1 [Compound 71, Methyl 2-(diethylamino)-5-hydroxy-6-iodo-7-(1H-pyrrol-1-yl)benzo[d]thiazole-4-carboxylate]
[3]
  solubility (in words): reduced solubility
